ChEMBL document CHEMBL1201862, “PubChem BioAssay data set” (2004)
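Cells were grown in 96-well plates and exposed to each compound for 48 hours at five concentrations; endpoints were interpolated linearly between bracketing concentrations, or set to the highest concentration if not reached. At the GI50, growth is halved.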 Calls of active or inactive are those of the source. No stated cut-off is given here; in the data, active = GI50 up to about 1.1 µM and inactive = higher.

What was measured:
Assay in all cases: DTP human tumour cell line panel, 48 h
[1] = test system: UACC-62
[2] = test system: IGROV-1
[3] = test system: LOX IMVI
[4] = test system: SK-MEL-2
[5] = test system: CAKI-1
[6] = test system: SF-268
[7] = test system: NCI/ADR-RES
[8] = test system: HCT-116
[9] = test system: SN12C
[10] = test system: CCRF-CEM
[11] = test system: RPMI-8226
[12] = test system: HCC 2998
[13] = test system: MDA-MB-231
[14] = test system: K562
[15] = test system: PC-3
[16] = test system: M14
[17] = test system: Malme-3M
[18] = test system: SW-620
[19] = test system: DU-145
[20] = test system: Hs-578T

Row | Compound | GI50 [1] | GI50 [2] | GI50 [3] | GI50 [4] | GI50 [5] | GI50 [6] | GI50 [7] | GI50 [8] | GI50 [9] | GI50 [10] | GI50 [11] | GI50 [12] | GI50 [13] | GI50 [14] | GI50 [15] | GI50 [16] | GI50 [17] | GI50 [18] | GI50 [19] | GI50 [20]
1 | CN1CCN(C2=NCCO2)CC1 | > 100 µM (inactive) | > 100 µM (inactive) | > 100 µM (inactive) | > 100 µM (inactive) | > 100 µM (inactive) | > 100 µM (inactive) | > 100 µM (inactive) | > 100 µM (inactive) | > 100 µM (inactive) | > 100 µM (inactive) | > 100 µM (inactive) | > 100 µM (inactive) | > 100 µM (inactive) | > 100 µM (inactive) | > 100 µM (inactive) | > 100 µM (inactive) | > 100 µM (inactive) | > 100 µM (inactive) | > 100 µM (inactive) | –
2 | O=C1C(Cl)C(c2ccc([N+](=O)[O-])cc2)N1n1cnc2ccccc2c1=O (stereo not given) | 70.5 µM (inactive) | 75.5 µM (inactive) | 87.1 µM (inactive) | > 100 µM (inactive) | 60.1 µM (inactive) | 28.6 µM (inactive) | – | 43.9 µM (inactive) | 42.3 µM (inactive) | 17.6 µM (inactive) | > 10 µM (inactive) | 73.6 µM (inactive) | – | 36.9 µM (inactive) | – | 32.3 µM (inactive) | > 100 µM (inactive) | 97.7 µM (inactive) | – | –
3 | CC(=O)/C(=C/N1C(=O)CC(=O)NC1=S)C(=O)Nc1ccccc1C | 24.3 µM (inactive) | 91 µM (inactive) | > 100 µM (inactive) | > 100 µM (inactive) | 87.9 µM (inactive) | 35.1 µM (inactive) | 39.7 µM (inactive) | 31.6 µM (inactive) | > 100 µM (inactive) | – | – | 29.4 µM (inactive) | > 100 µM (inactive) | – | – | 76 µM (inactive) | – | 32.8 µM (inactive) | 97.3 µM (inactive) | –
4 | CCOP(=O)(OCC)C1CC(C)OC1=O (stereo not given) | > 100 µM (inactive) | > 100 µM (inactive) | > 100 µM (inactive) | > 100 µM (inactive) | > 100 µM (inactive) | > 100 µM (inactive) | – | > 100 µM (inactive) | > 100 µM (inactive) | > 100 µM (inactive) | > 100 µM (inactive) | > 100 µM (inactive) | – | > 100 µM (inactive) | – | > 100 µM (inactive) | > 100 µM (inactive) | > 100 µM (inactive) | – | –
5 | O=S(=O)(O)c1cc(Cl)c(O)c2ncc(Cl)cc12 | 50.1 µM (inactive) | 35.4 µM (inactive) | 31 µM (inactive) | > 100 µM (inactive) | > 100 µM (inactive) | – | 32.8 µM (inactive) | 36.5 µM (inactive) | 64 µM (inactive) | 24.6 µM (inactive) | 45.2 µM (inactive) | > 100 µM (inactive) | > 100 µM (inactive) | 41.6 µM (inactive) | > 100 µM (inactive) | 90.8 µM (inactive) | – | 56.8 µM (inactive) | > 100 µM (inactive) | –
6 | CCc1cc(-c2nsc(=O)o2)c(S(=O)(=O)CC)s1 | – | 34 µM (inactive) | 56.6 µM (inactive) | 95.5 µM (inactive) | 56.9 µM (inactive) | 86.9 µM (inactive) | > 100 µM (inactive) | 43.3 µM (inactive) | > 100 µM (inactive) | 32.6 µM (inactive) | 49.4 µM (inactive) | 37.2 µM (inactive) | – | 37.2 µM (inactive) | 33.4 µM (inactive) | 76 µM (inactive) | – | 61 µM (inactive) | > 100 µM (inactive) | > 100 µM (inactive)
7 | CN(CCNC(=O)c1nn(C)c2c1Cc1ccccc1-2)CCNC(=O)c1nn(C)c2c1Cc1ccccc1-2 | 15.2 µM (inactive) | 8.55 µM (inactive) | 16.4 µM (inactive) | 14.7 µM (inactive) | 18.4 µM (inactive) | 14.7 µM (inactive) | 21.4 µM (inactive) | 15.1 µM (inactive) | 14.9 µM (inactive) | – | – | 12.5 µM (inactive) | 19 µM (inactive) | 12.7 µM (inactive) | 18.4 µM (inactive) | 12.6 µM (inactive) | 16.3 µM (inactive) | 18.7 µM (inactive) | 17.9 µM (inactive) | –
8 | Nc1ccc(C(=O)NN2C(=O)C(Cl)C2c2cccc([N+](=O)[O-])c2)cc1 (stereo not given) | 21.1 µM (inactive) | 14.3 µM (inactive) | 10.2 µM (inactive) | 16.8 µM (inactive) | 19.5 µM (inactive) | 17 µM (inactive) | – | 17.3 µM (inactive) | 19.7 µM (inactive) | 9.79 µM (inactive) | 23.2 µM (inactive) | 24.3 µM (inactive) | – | 20.8 µM (inactive) | – | 23 µM (inactive) | 20.4 µM (inactive) | 21.7 µM (inactive) | – | –
9 | Cc1ccc(S(=O)(=O)Nn2c(O)c(C#N)c(-c3ccc([N+](=O)[O-])cc3)c(C#N)c2=O)cc1 | > 100 µM (inactive) | > 100 µM (inactive) | > 100 µM (inactive) | > 100 µM (inactive) | > 100 µM (inactive) | > 100 µM (inactive) | > 100 µM (inactive) | > 100 µM (inactive) | > 100 µM (inactive) | > 100 µM (inactive) | – | > 100 µM (inactive) | > 100 µM (inactive) | > 100 µM (inactive) | > 100 µM (inactive) | > 100 µM (inactive) | > 100 µM (inactive) | > 100 µM (inactive) | – | –
10 | CC1=NN(c2ccccc2)C(=O)C1=C1SCCCS1 | 17.3 µM (inactive) | 30.2 µM (inactive) | 23.6 µM (inactive) | 56 µM (inactive) | 15 µM (inactive) | 44 µM (inactive) | – | 13.8 µM (inactive) | 28.2 µM (inactive) | 11.7 µM (inactive) | 19.7 µM (inactive) | 37 µM (inactive) | – | 21.1 µM (inactive) | – | 49.4 µM (inactive) | 41.8 µM (inactive) | 13.2 µM (inactive) | – | –
11 | NS(=O)(=O)c1nnc(NC(=O)c2cccc([N+](=O)[O-])c2)s1 | > 100 µM (inactive) | – | > 100 µM (inactive) | > 100 µM (inactive) | > 100 µM (inactive) | > 100 µM (inactive) | > 100 µM (inactive) | > 100 µM (inactive) | > 100 µM (inactive) | – | > 100 µM (inactive) | > 100 µM (inactive) | > 100 µM (inactive) | > 100 µM (inactive) | – | > 100 µM (inactive) | > 100 µM (inactive) | > 100 µM (inactive) | > 100 µM (inactive) | > 100 µM (inactive)
12 | COc1cc2nc(-c3cccs3)nc(N3C(c4cc(OC)c(OC)c(OC)c4)=NNC(=O)c4ccccc43)c2cc1OC | 17.4 µM (inactive) | 33.9 µM (inactive) | 15.8 µM (inactive) | 76 µM (inactive) | 52.8 µM (inactive) | 12 µM (inactive) | 3.4 µM (inactive) | > 100 µM (inactive) | 21.2 µM (inactive) | – | – | – | 16.7 µM (inactive) | 8.34 µM (inactive) | 29.6 µM (inactive) | 15.3 µM (inactive) | 18.7 µM (inactive) | – | 29 µM (inactive) | 38.9 µM (inactive)
13 | O=S1(=O)NN=C(NCc2ccc(Cl)c(Cl)c2)c2ccccc21 | 6.56 µM (inactive) | > 100 µM (inactive) | 40.2 µM (inactive) | > 100 µM (inactive) | > 100 µM (inactive) | > 100 µM (inactive) | – | > 100 µM (inactive) | > 100 µM (inactive) | 9.16 µM (inactive) | 11.5 µM (inactive) | > 100 µM (inactive) | – | 12 µM (inactive) | – | > 100 µM (inactive) | > 100 µM (inactive) | 91.2 µM (inactive) | – | –
14 | COC(=O)c1cc(C#N)[nH]c1-c1ccc(C)s1 | 51.3 µM (inactive) | – | – | – | 41.9 µM (inactive) | 42.2 µM (inactive) | 31.1 µM (inactive) | > 100 µM (inactive) | 63.2 µM (inactive) | 53 µM (inactive) | 51.3 µM (inactive) | > 100 µM (inactive) | 38.6 µM (inactive) | > 100 µM (inactive) | 8.39 µM (inactive) | > 100 µM (inactive) | – | 43.9 µM (inactive) | 30.6 µM (inactive) | –
15 | Cc1ccc(S(=O)(=O)N/N=C2\C=CC3(CC2)C(=O)N(I)c2ccccc23)cc1 (stereo not given) | > 100 µM (inactive) | – | > 100 µM (inactive) | 48.1 µM (inactive) | > 100 µM (inactive) | 90.6 µM (inactive) | > 100 µM (inactive) | 87.5 µM (inactive) | > 100 µM (inactive) | 75 µM (inactive) | 39.3 µM (inactive) | > 100 µM (inactive) | 58.7 µM (inactive) | 25.1 µM (inactive) | 63.1 µM (inactive) | > 100 µM (inactive) | 0.055 µM (active) | > 100 µM (inactive) | > 10 µM (inactive) | –
16 | O=C(Nc1ccc(C(F)(F)F)cc1)NC(F)(F)F | – | > 100 µM (inactive) | > 100 µM (inactive) | > 100 µM (inactive) | 34.5 µM (inactive) | > 100 µM (inactive) | > 100 µM (inactive) | > 100 µM (inactive) | > 100 µM (inactive) | > 100 µM (inactive) | > 100 µM (inactive) | > 100 µM (inactive) | – | > 100 µM (inactive) | > 100 µM (inactive) | > 100 µM (inactive) | – | > 100 µM (inactive) | – | > 100 µM (inactive)
17 | N=NCC(=O)OC(COCc1ccccc1)COCc1ccccc1 | > 100 µM (inactive) | > 100 µM (inactive) | 93.5 µM (inactive) | > 100 µM (inactive) | 37.9 µM (inactive) | > 100 µM (inactive) | – | > 100 µM (inactive) | 80.5 µM (inactive) | 57.8 µM (inactive) | > 100 µM (inactive) | > 100 µM (inactive) | > 100 µM (inactive) | 47 µM (inactive) | 70 µM (inactive) | – | > 100 µM (inactive) | > 100 µM (inactive) | 36.3 µM (inactive) | –
